Results on 22 compounds are retold here after patent US10160766B1, “Benzopyranyl tetracycle compound and pharmaceutical composition having excellent anti-inflammatory effect comprising the same” (Spark Biopharma, Inc., priority 2017, dated 2018).

For orientation: inhibition means how much of the control response was suppressed.

What all share (assay type): cell-based
Data set [1] relates to NO release in Raw264.7 cells. As to the kind of experiment: Griess assay, inhibition of nitric oxide release. To be noted: for NO Inhibition rate (%): 100 ng/mL LPS and compounds 24 hours, compared with control group; for inhibitory effect on NO release, in words, compared with Compound 1d: 100 ng/mL LPS, 24 hours. As to the method: Thus, the Griess assay was used to measure nitric oxide secretion for inflammation inhibition in Raw264.7 cells.
Raw 264.7 macrophage cell was cultured in Dulbecco Modified Eagle Medium (DMEM) with 10% (v/v) fetal bovine serum (FBS) and 1% (v/v) antibiotic-anti mycotic solution.
Cell was maintained in a 100 mm cell culture dish under cell culture conditions (5% CO2 incubator at 37° C. with humidified atmosphere).
Griess assay reagent was generated prior to the assay with the following contents listed below: N-(1-naphthyl) ethylenediamine dihydrochloride, 0.1% (m/v); sulfanilamide, 1% (m/v); phosphoric acid (85%); 5% (v/v) in deionized water.
Raw 264.7 cell was seeded in transparent 96-well plate and maintained for 1 day. Media was aspirated, and each well was washed with serum free DMEM for twice. Each well was refilled with serum-free DMEM.
Then 100 ng/mL LPS and compounds were treated afterward and cultured for 24 hours. After the incubation, the supernatant culture media was transferred to new 96-well plate and mixed with 50 μL of Griess assay reagent.
Media-reagent mixture was incubated at room temperature for several minutes. Absorbance was read at 548 nm. Four wells each were used for the control experiment, LPS and DMSO (without any compounds) treated well, and DMSO-only treated well. Blank values were measured.
Blank values were measured by mixing 50 μL of Griess assay reagent with […] and 1% antibiotic-antimycotic containing DMEM.
As for the compounds in which the double bond of the tetrahydropyridazine ring in Compound 1d is moved or eliminated, the inhibition rate of NO release was measured in the same manner as in Test Example 2.
The inhibition rate of NO release for Compounds 2a to 2o prepared in Example 2 was tested in order to confirm the anti-inflammatory effect for the above compounds.
A general note: The Griess reaction detects nitrite, a stable product of nitric oxide.

The test system of the next data set is Raw 264.7 cell. As to the kind of experiment: WST (water-soluble tetrazolium) analysis, relative cell viability. To be noted: 100 ng/mL LPS and compounds 24 hours. As to the method: Relative cell viability of Compound 2a to 2o prepared in Examples 2 was measured by WST (water-soluble tetrazolium) analysis.
Raw 264.7 cell was seeded in transparent 96-well plate and maintained for 1 day.
Media was aspirated, and each well was washed with serum free DMEM for twice. Each well was refilled with serum-free DMEM. Then, 100 ng/mL LPS and compounds were treated afterward and cultured for 24 hours. After the incubation, the supernatant culture media was transferred to new 96-well plate.
Immediately after transferring media, cell-seeded wells were refilled with 100 μL of 10% FBS and 1% antibiotic-antimycotic containing DMEM. Then, 10 μL of Ez-cytox WST assay reagent was used to treat each well, following the manufacturer's protocol.
After incubating for 20 min in a 5% CO2 incubator at 37° C. with humidified atmosphere, absorbance was read at 450 nm.
Blank values were obtained from the well only treated with 10% FBS and 1% antibiotic-antimycotic containing DMEM.

The test system of data set [2] is TNF-α secretion in Raw264.7 cell. Kind of data set: ELISA of secreted TNF-α. Particulars: Mus musculus, LPS 100 ng/mL, compounds 10 μM, read-out: TNF-α Inhibition Rate (%). The protocol: Thus, in order to additionally confirm the inflammation inhibitory effects of Compounds 2f to 2l, the inhibition rate of TNF-α secretion was quantitatively measured by ELISA.
Cells were treated with each Compound 1d, or 2f to 2l, and LPS for 24 hours, followed by ELISA for TNF-α present in the culture solution.
In order to measure the amount of secreted TNF-α, Raw264.7 cell was seeded in transparent 96-well plate and maintained for 1 day. Media was aspirated after 1 day and replaced to serum-free DMEM with 1% (v/v) antibiotic-antimycotic solution. LPS and compounds were treated in a final concentration of 100 ng/mL and 10 μM.
Standard curve was plotted by the dose-dependent treatment of the control TNF-α protein provided with the ELISA kit. Blank value was measured by adding solutions without TNF-α substrate.
The TNF-α secretion inhibition rate of Compounds 1d, and 2f to 2l was confirmed, when compared with control groups.
Background: An ELISA detects its analyte on a solid surface through an enzyme-linked reagent.

Consider `CCCCc1ccc(-n2c(=O)n3n(c2=O)C2C(=CC3)C(C)(C)Oc3cc(O)ccc32)cc1` (stereo not shown) [Compound 2o], for which the “NO Inhibition rate (%)” value in data set [1] is 99%. Moreover, the “Relative Cell Viability (%)” value in the data set with Raw 264.7 cell stood at 50%.
As to `CC1(C)Oc2cc(F)ccc2C2C1=CCn1c(=O)n(-c3ccccc3)c(=O)n12` (stereo not shown) [Compound 1c], the “NO Inhibition rate (%)” value in data set [1] came to 79%.
As for `CC1(C)Oc2cc(O)ccc2C2C1=CCn1c(=O)n(Cc3ccccc3)c(=O)n12` (stereo not shown) [Compound 2b], in data set [1], the “NO Inhibition rate (%)” value was determined as 70%. The “Relative Cell Viability (%)” value in the data set on Raw 264.7 cell worked out at 106%.
Regarding `CC1(C)Oc2cc(O)ccc2C2C1=CCn1c(=O)n(-c3ccc(C(C)(C)C)cc3)c(=O)n12` (stereo not shown) [Compound 2n], the “NO Inhibition rate (%)” value in data set [1] amounted to 99%. Besides, in the data set on Raw 264.7 cell, the “Relative Cell Viability (%)” value is given as 105%.
For `COc1ccc2c(c1)C1C(=CCn3c(=O)n(-c4ccccc4)c(=O)n31)C(C)(C)O2` (stereo not shown) [Compound 1f], in data set [1], the “NO Inhibition rate (%)” value is 55%.
Take `CNc1ccc2c(c1)OC(C)(C)C1=CCn3c(=O)n(-c4ccccc4)c(=O)n3C12` (stereo not shown) [Compound 1b]: the “NO Inhibition rate (%)” value in data set [1] amounted to 52%.
As to `COc1ccccc1-n1c(=O)n2n(c1=O)C1C(=CC2)C(C)(C)Oc2cc(O)ccc21` (stereo not shown) [Compound 2e], the “Relative Cell Viability (%)” value with Raw 264.7 cell stood at 115%.
`COc1cc2c(cc1OC)C1C(=CCn3c(=O)n(-c4ccccc4)c(=O)n31)C(C)(C)O2` (stereo not shown) [Compound 1g]: in data set [1], the “NO Inhibition rate (%)” value amounted to 44%.
For the compound `CC1(C)Oc2cc(O)ccc2C2C1=CCn1c(=O)n(-c3ccc4c(c3)OCO4)c(=O)n12` (stereo not shown) [Compound 2k], the inhibition at 10 µM in data set [2] amounted to 46%. In addition, the “NO Inhibition rate (%)” value in data set [1] was 92%. Besides, the “Relative Cell Viability (%)” value in the data set on Raw 264.7 cell was 121%.
Taken in the same sequence, the figures for `COc1cccc(-n2c(=O)n3n(c2=O)C2C(=CC3)C(C)(C)Oc3cc(O)ccc32)c1` (stereo not shown) [Compound 2f] were 38%, 96% and 118%.
For `Cc1ccc(-n2c(=O)n3n(c2=O)C2C(=CC3)C(C)(C)Oc3cc(O)ccc32)cc1` (stereo not shown) [Compound 2i] the same measures were 45%, 94% and 130%.
As to `COc1ccc2c(c1O)OC(C)(C)C1=CCn3c(=O)n(-c4ccccc4)c(=O)n3C12` (stereo not shown) [Compound 1h], the “NO Inhibition rate (%)” value in data set [1] came out at 26%.
Regarding `COc1ccc(-n2c(=O)n3n(c2=O)C2C(=CC3)C(C)(C)Oc3cc(O)ccc32)cc1` (stereo not shown) [Compound 2g], the inhibition at 10 µM in data set [2] turned out to be 44%. Besides, the “NO Inhibition rate (%)” value in data set [1] is 89%. In the data set on Raw 264.7 cell, the “Relative Cell Viability (%)” value was found to be 127%.
Regarding `CC1(C)Oc2cc(O)ccc2C2C1=CCn1c(=O)n(C3CCCCC3)c(=O)n12` (stereo not shown) [Compound 2c], the “NO Inhibition rate (%)” value in data set [1] was determined as 63%. The “Relative Cell Viability (%)” value in the data set on Raw 264.7 cell stood at 117%.
On to `CC1(C)Oc2cc(O)ccc2C2C1=CCn1c(=O)n(-c3ccc(C(F)(F)F)cc3)c(=O)n12` (stereo not shown) [Compound 2m], for which the “NO Inhibition rate (%)” value in data set [1] was 85%. The “Relative Cell Viability (%)” value with Raw 264.7 cell turned out to be 106%.
On to `COc1ccc2c(c1)OC(C)(C)C1=CCn3c(=O)n(-c4ccccc4)c(=O)n3C12` (stereo not shown) [Compound 1e], for which, in data set [1], the “NO Inhibition rate (%)” value was 44%.
For the compound `Cn1c(=O)n2n(c1=O)C1C(=CC2)C(C)(C)Oc2cc(O)ccc21` (stereo not shown) [Compound 2a], the “NO Inhibition rate (%)” value in data set [1] is listed as 45%. Also, the “Relative Cell Viability (%)” value with Raw 264.7 cell was determined as 114%.
Turning to `CC1(C)Oc2ccccc2C2C1=CCn1c(=O)n(-c3ccccc3)c(=O)n12` (stereo not shown) [Compound 1a], the “NO Inhibition rate (%)” value in data set [1] amounted to 83%.
Regarding `CC(=O)N1CCC2(CC1)Oc1cc(O)ccc1C1C2=CCn2c(=O)n(-c3ccccc3)c(=O)n21` (stereo not shown) [Compound 1j], in data set [1], the “NO Inhibition rate (%)” value was 36% and the “inhibitory effect on NO release, in words, compared with Compound 1d” value is “significantly reduced”.
Taken in the same sequence, the figures for `CCCN1CCC2(CC1)Oc1cc(O)ccc1C1C2=CCn2c(=O)n(-c3ccccc3)c(=O)n21` (stereo not shown) [Compound 1i] were 47% and “significantly reduced”.
As for `CC1(C)Oc2cc(O)ccc2C2C1=CCn1c(=O)n(-c3ccccc3I)c(=O)n12` (stereo not shown) [Compound 2d], in the data set with Raw 264.7 cell, the “Relative Cell Viability (%)” value is on record as 109%.
`CC1(C)Oc2cc(O)ccc2C2C1=CCn1c(=O)n(-c3ccc(F)cc3)c(=O)n12` (stereo not shown) [Compound 2h]: the inhibition at 10 µM in data set [2] was determined as 44%. For the same compound, the “NO Inhibition rate (%)” value in data set [1] worked out at 87%. Moreover, the “Relative Cell Viability (%)” value in the data set on Raw 264.7 cell is 109%.
